From patent US20170275270A1, “BENZYL SUBSTITUTED INDAZOLES” (Bayer Pharma Aktiengesellschaft, priority 2014, published 2017)
pIC50: −log10 of the molar value. Read-outs that look alike come from different tables or passages of the source.

Assays:
[1] = target: T1, catalytic domain of human Bub1 (amino acids 704-1085) (Homo sapiens, UniProt O43683); assay: Bub1 kinase assay (TR-FRET); format: biochemical
T1 construct: catalytic domain of human Bub1 (amino acids 704-1085); His6 (N); made in house; host or cells: Hi5 insect cells
Outline: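 Compounds from 2 mM DMSO stocks, serially diluted 1:3.4, incubated with enzyme at 22° C for 60 min. Stopped with EDTA, then 1 h with streptavidin-XL665, anti-phosphoserine antibody and Eu-labelled anti-mouse IgG. Phosphorylated biotin-peptide read by TR-FRET; IC50 by 4-parameter logistic fit.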

[2] = test system: HeLa human cervical tumor cells; assay: Proliferation assay (HeLa+Paclitaxel); settings: read-out: Biological Assay 3: HeLa + Paclitaxel IC50, 3 nM paclitaxel, crystal violet;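 also: compounds at 0.001-10 µM added 4 h after paclitaxel, 92 h exposure, absorbance normalized to zero-point plate (0%) and untreated cells (100%), IC50 from 4-parameter fit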
HeLa = assay: Proliferation assay (HeLa cell line); settings: Homo sapiens, 96 h, read-out: Biological Assay 2: Proliferation assay (HeLa cell line) median IC50;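 also: crystal violet staining of cell number, scaled between a plate stained before dosing (0%) and cells left untreated (100%), compounds tested at 0.001-10 µM, IC50 via 4-parameter fit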
Bub1 = Bub1 (Homo sapiens, UniProt O43683); assay: Formation-Assay: phosphorylation status of histone 2A by inhibition of kinase activity of Bub1; format: cell-based; settings: Biological Assay 4.1: H2A Formation IC50, co-treatment with Nocodazole 1 μg/ml, 16 h
Outline: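 Cells co-treated 16 h with Nocodazole (1 μg/ml) and compound (3 nM–10 μM), then fixed and immunostained for phospho-H2A, read by infrared imaging (800 nm) normalised to cell stain (700 nm). Nocodazole-only set as 100%, untreated cells as 0%.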

[3] = Biological Assay 1: Bub1 kinase assay median IC50, 10 μM ATP
[4] = 10 μM ATP, read-out: Biological Assay 1: Bub1 kinase assay median IC50

Sequence of Bub1 (O43683 whole entry): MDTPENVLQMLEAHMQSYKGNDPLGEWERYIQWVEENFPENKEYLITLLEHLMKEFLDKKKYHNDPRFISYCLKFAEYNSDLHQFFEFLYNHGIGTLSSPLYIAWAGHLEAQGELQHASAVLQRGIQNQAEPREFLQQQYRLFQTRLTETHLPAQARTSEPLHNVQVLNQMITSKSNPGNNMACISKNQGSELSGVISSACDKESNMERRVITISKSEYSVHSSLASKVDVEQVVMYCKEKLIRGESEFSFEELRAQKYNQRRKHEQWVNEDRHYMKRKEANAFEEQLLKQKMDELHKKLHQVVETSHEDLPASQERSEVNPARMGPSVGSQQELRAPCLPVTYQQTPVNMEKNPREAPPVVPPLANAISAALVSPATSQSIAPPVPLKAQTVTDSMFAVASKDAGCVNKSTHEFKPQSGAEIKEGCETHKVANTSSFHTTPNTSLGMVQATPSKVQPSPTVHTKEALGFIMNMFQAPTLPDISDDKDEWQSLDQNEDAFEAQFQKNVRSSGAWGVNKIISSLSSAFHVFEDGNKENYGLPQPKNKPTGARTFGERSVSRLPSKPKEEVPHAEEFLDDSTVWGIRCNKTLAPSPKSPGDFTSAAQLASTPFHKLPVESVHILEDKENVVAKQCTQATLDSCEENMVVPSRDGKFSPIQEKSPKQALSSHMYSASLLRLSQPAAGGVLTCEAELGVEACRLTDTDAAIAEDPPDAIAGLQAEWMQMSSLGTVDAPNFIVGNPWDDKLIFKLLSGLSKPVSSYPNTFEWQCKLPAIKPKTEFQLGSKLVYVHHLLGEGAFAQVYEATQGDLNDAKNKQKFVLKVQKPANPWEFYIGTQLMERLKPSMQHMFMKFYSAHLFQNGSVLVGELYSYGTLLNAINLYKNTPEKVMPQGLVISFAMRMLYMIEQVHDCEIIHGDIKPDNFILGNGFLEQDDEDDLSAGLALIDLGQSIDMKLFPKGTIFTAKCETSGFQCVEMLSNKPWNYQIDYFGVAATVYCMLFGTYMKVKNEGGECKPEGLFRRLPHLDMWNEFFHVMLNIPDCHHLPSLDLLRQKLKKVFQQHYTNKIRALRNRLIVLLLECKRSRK
T1 sequence (O43683 704-1085): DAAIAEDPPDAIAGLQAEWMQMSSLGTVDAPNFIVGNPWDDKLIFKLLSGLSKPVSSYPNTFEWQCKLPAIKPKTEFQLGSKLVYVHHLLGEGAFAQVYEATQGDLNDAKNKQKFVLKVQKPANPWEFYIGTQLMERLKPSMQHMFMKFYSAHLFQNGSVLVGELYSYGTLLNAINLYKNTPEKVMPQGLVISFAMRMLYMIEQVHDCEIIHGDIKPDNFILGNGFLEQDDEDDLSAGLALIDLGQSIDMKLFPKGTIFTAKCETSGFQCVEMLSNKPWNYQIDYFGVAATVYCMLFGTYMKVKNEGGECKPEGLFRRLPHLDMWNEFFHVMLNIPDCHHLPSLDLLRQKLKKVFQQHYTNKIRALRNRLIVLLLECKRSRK

Row | SMILES | pIC50 [1, 3] | pIC50 [2] | pIC50 (HeLa) | pIC50 (Bub1) | pIC50 [1, 4]
1 | CCOc1cc(F)c(Cn2nc(-c3nc(COC)cc(Nc4ccnc(NC(C)=O)c4)n3)c3ccccc32)c(F)c1 [Example 2-12-20, N-[4-({2-[1-(4-ethoxy-2,6-difluorobenzyl)-1H-indazol-3-yl]-6-(methoxymethyl)pyr-imidin-4-yl}amino)pyridin-2-yl]acetamide] | 8.28 | 6.48 | 5.55 | 8.54 | –
2 | CCOc1cc(F)c(Cn2nc(-c3nc(CC)cc(Nc4ccnc(NC(C)=O)c4)n3)c3ccccc32)c(F)c1 [Example 2-12-22, N-[4-({2-[1-(4-ethoxy-2,6-difluorobenzyl)-1H-indazol-3-yl]-6-ethylpyrimidin-4-yl}amino)pyridin-2-yl]acetamide] | 8.03 | 6.12 | 5.92 | 7.46 | –
3 | CCOc1cc(F)c(Cn2nc(-c3nc(C)c(Cl)c(Nc4ccncc4)n3)c3ccccc32)c(F)c1 [Example 2-12-23, 5-chloro-2-[1-(4-ethoxy-2,6-difluorobenzyl)-1H-indazol-3-yl]-6-methyl-N-(pyridin-4-yl)pyrimidin-4-amine] | – | 6.42 | < 5.00 | 8.00 | 7.64
4 | CCOc1cc(F)c(Cn2nc(-c3nc(CN4CCOCC4)cc(Nc4ccnc(S(C)(=O)=O)c4)n3)c3ccccc32)c(F)c1 [Example 2-12-33, 2-[1-(4-ethoxy-2,6-difluorobenzyl)-1H-indazol-3-yl]-N-[2-(methylsulfonyl)pyridin-4-yl]-6-(morpholin-4-ylmethyl)pyrimidin-4-amine] | – | 6.40 | 5.08 | 6.43 | 6.28
5 | CCOc1cc(F)c(Cn2nc(-c3nc(CN4CCOCC4)cc(Nc4ccncc4Cl)n3)c3ccccc32)c(F)c1 [Example 2-12-34, N-(3-chloropyridin-4-yl)-2-[1-(4-ethoxy-2,6-difluorobenzyl)-1H-indazol-3-yl]-6-(morpholin-4-ylmethyl)pyrimidin-4-amine] | – | 6.30 | 5.11 | 6.15 | 7.44
6 | CCOc1cc(F)c(Cn2nc(-c3nc(CN4CCOCC4)cc(Nc4ccnnc4)n3)c3ccccc32)c(F)c1 [Example 2-12-35, N-{2-[1-(4-ethoxy-2,6-difluorobenzyl)-1H-indazol-3-yl]-6-(morpholin-4-ylmethyl)pyrimidin-4-yl}pyridazin-4-amine] | – | 6.23 | 5.00 | 7.85 | 7.77
7 | CCOc1cc(F)c(Cn2nc(-c3nc(CN4CCOCC4)cc(Nc4ccncn4)n3)c3ccccc32)c(F)c1 [Example 2-12-47, 2-[1-(4-ethoxy-2,6-difluorobenzyl)-1H-indazol-3-yl]-6-(morpholin-4-ylmethyl)-N-(pyrimidin-4-yl)pyrimidin-4-amine] | – | 7.17 | 5.21 | 5.68 | 8.28
8 | CCOc1cc(F)c(Cn2nc(-c3nc(COC)cc(Nc4ccnc(C)c4)n3)c3ccccc32)c(F)c1 [Example 2-12-48, 2-[1-(4-ethoxy-2,6-difluorobenzyl)-1H-indazol-3-yl]-6-(methoxymethyl)-N-(2-methylpyridin-4-yl)pyrimidin-4-amine] | 7.68 | 6.74 | 5.92 | 5.96 | –
9 | COCc1cc(Nc2ccncc2C)nc(-c2nn(Cc3c(F)cc(OCCO)cc3F)c3ccccc23)n1 [Example 2-12-50, 2-{3,5-difluoro-4-[(3-{4-(methoxymethyl)-6-[(3-methylpyridin-4-yl)amino]pyrimidin-2-yl}-1H-indazol-1-yl)methyl]phenoxy}eth-anol] | 8.27 | 5.89 | 6.01 | 7.64 | –
10 | COCc1cc(Nc2ccnc(C)c2)nc(-c2nn(Cc3c(F)cc(OCCO)cc3F)c3ccccc23)n1 [Example 2-12-51, 2-{3,5-difluoro-4-[(3-{4-(methoxymethyl)-6-[(2-methylpyridin-4-yl)amino]pyrimidin-2-yl}-1H-indazol-1-yl)methyl]phenoxy}eth-anol] | 7.35 | 6.47 | 6.39 | 6.24 | –
11 | CCOc1cc(F)c(Cn2nc(-c3nc4c(c(Nc5ncncn5)n3)CCC4)c3ccccc32)c(F)c1 [Example 2-12-52, 2-[1-(4-ethoxy-2,6-difluorobenzyl)-1H-indazol-3-yl]-N-(1,3,5-triazin-2-yl)-6,7-dihydro-5H-cyclopenta[d]pyrimidin-4-amine] | – | 6.00 | 5.96 | 7.60 | 7.00
12 | CCOc1cc(F)c(Cn2nc(-c3nc4c(c(Nc5cnnc(Cl)c5)n3)CCC4)c3ccccc32)c(F)c1 [Example 2-12-53, N-(6-chloropyridazin-4-yl)-2-[1-(4-ethoxy-2,6-difluorobenzyl)-1H-indazol-3-yl]-6,7-dihydro-5H-cyclopenta[d]pyrimidin-4-amine] | – | 6.29 | < 5.00 | 6.85 | 6.18
13 | CCOc1cc(F)c(Cn2nc(-c3nc4c(c(Nc5ccnc(C)n5)n3)CCC4)c3ccccc32)c(F)c1 [Example 2-12-54, 2-[1-(4-ethoxy-2,6-difluorobenzyl)-1H-indazol-3-yl]-N-(2-methylpyrimidin-4-yl)-6,7-dihydro-5H-cyclopenta[d]pyrimidin-4-amine] | 7.51 | 6.74 | 5.48 | 7.85 | –
14 | CCOc1cc(F)c(Cn2nc(-c3nc4c(c(Nc5cc(C)ncc5C)n3)CC(C)(C)C4)c3ccccc32)c(F)c1 [Example 2-12-59, N-(2,5-dimethylpyridin-4-yl)-2-[1-(4-ethoxy-2,6-difluorobenzyl)-1H-indazol-3-yl]-6,6-dimethyl-6,7-dihydro-5H-cyclopenta[d]pyrimidin-4-amine] | – | 7.21 | < 5.00 | 6.92 | 7.66
15 | CCOc1cc(F)c(Cn2nc(-c3nc4c(c(Nc5ccnc(C)n5)n3)CC(C)(C)C4)c3ccccc32)c(F)c1 [Example 2-12-60, 2-[1-(4-ethoxy-2,6-difluorobenzyl)-1H-indazol-3-yl]-6,6-dimethyl-N-(2-methylpyrimidin-4-yl)-6,7-dihydro-5H-cyclopenta[d]pyrimidin-4-amine] | 7.42 | 7.07 | < 5.00 | 8.41 | –
16 | COCCOc1cc(F)c(Cn2nc(-c3nc4c(c(Nc5ccnc(C)n5)n3)CC(C)(C)C4)c3ccccc32)c(F)c1 [Example 2-12-61, 2-{1-[2,6-difluoro-4-(2-methoxyethoxy)benzyl]-1H-indazol-3-yl}-6,6-dimethyl-N-(2-methylpyrimidin-4-yl)-6,7-dihydro-5H-cyclopenta[d]pyrimidin-4-amine] | 7.13 | 6.89 | < 5.00 | 5.62 | –
17 | CCOc1cc(F)c(Cn2nc(-c3nc4c(c(Nc5ccnc(NC(C)=O)c5)n3)CC(C)(C)C4)c3ccccc32)c(F)c1 [Example 2-12-65, N-[4-({2-[1-(4-ethoxy-2,6-difluorobenzyl)-1H-indazol-3-yl]-6,6-dimethyl-6,7-dihydro-5H-cyclopenta[d]pyrimidin-4-yl}amino)pyridin-2-yl]acetamide] | 7.66 | 6.96 | < 5.00 | 8.48 | –
18 | CCOc1cc(F)c(Cn2nc(-c3nc4c(c(Nc5ccnc(C)n5)n3)CC(C)(C)CC4)c3ccccc32)c(F)c1 [Example 2-12-66, 2-[1-(4-ethoxy-2,6-difluorobenzyl)-1H-indazol-3-yl]-6,6-dimethyl-N-(2-methylpyrimidin-4-yl)-5,6,7,8-tetrahydroquinazolin-4-amine] | – | 7.00 | < 5.00 | 7.66 | 7.01
19 | CCOc1cc(F)c(Cn2nc(-c3nc4c(c(Nc5ccncc5OC)n3)CC(C)(C)CC4)c3ccccc32)c(F)c1 [Example 2-12-67, 2-[1-(4-ethoxy-2,6-difluorobenzyl)-1H-indazol-3-yl]-N-(3-methoxypyridin-4-yl)-6,6-dimethyl-5,6,7,8-tetrahydroquinazolin-4-amine] | – | 6.82 | 5.36 | 7.66 | 7.18
20 | CCOc1cc(F)c(Cn2nc(-c3nc4c(c(Nc5cc(C)ncc5C)n3)CC(C)(C)CC4)c3ccccc32)c(F)c1 [Example 2-12-68, N-(2,5-dimethylpyridin-4-yl)-2-[1-(4-ethoxy-2,6-difluorobenzyl)-1H-indazol-3-yl]-6,6-dimethyl-5,6,7,8-tetrahydroquinazolin-4-amine] | – | 7.11 | 5.57 | 8.42 | 7.46
21 | CCOc1cc(F)c(Cn2nc(-c3nc(Nc4ccncc4OC)cc(C(F)(F)F)n3)c3ccccc32)c(F)c1 [Example 2-12-81, 2-[1-(4-ethoxy-2,6-difluorobenzyl)-1H-indazol-3-yl]-N-(3-methoxypyridin-4-yl)-6-(trifluoromethyl)pyr-imidin-4-amine] | – | 6.66 | 5.80 | 7.89 | 7.72
22 | CCOc1cc(F)c(Cn2nc(-c3nc(Nc4ccnc(C)n4)cc(C(F)(F)F)n3)c3ccccc32)c(F)c1 [Example 2-12-83, 2-[1-(4-ethoxy-2,6-difluorobenzyl)-1H-indazol-3-yl]-N-(2-methylpyrimidin-4-yl)-6-(trifluoromethyl)pyr-imidin-4-amine] | < 4.70 | 6.46 | < 5.00 | 7.51 | –
